Laboratory results reported in patent US7517840B2, “Optimized perfumery for rinse-off products” (Givaudan Fragrances Corporation, priority 2005, dated 2009).
Values joined by “and” are separate entries in the source; they are usually repeats but may differ in a detail not shown here. Identical values can stand only once. Like-named read-outs stand apart in the source and are kept apart here.

Columns and labels:
[1] = GC-MS headspace release profile of perfume in shampoo, 1/100 dilution in water; assay type: physicochemical; details: Tropical Fruit Perfume
Description: Experimental Procedure: Individual odorant to be tested was added to 20 g of shampoo formulation (see formula below in Table 4) at 0.1%.
A 10 gram sample of formulation and fragrance was added to an empty 1000 ml pyrex beaker. This beaker was then filled with 1000 ml of 120 F tap water. Beaker with diluted shampoo sample was then immediately placed into a semi-enclosed plexiglass chamber.
Headspace Sampling: Once beaker was placed into chamber a Carboxan SPME field fiber was held at the top-side opening of the chamber over the beaker containing the sample. […] […] Top of plexiglass chamber was held open for entire 5 minutes of headspace sampling.

[2] = cited from earlier work; for Odor Detection Threshold: Table 24, Floral fragrance; for exp ODT water: Booleans database

Compound	GC Abundance ([1]; 40 seconds)	GC Abundance ([1]; 50 seconds)	GC Abundance ([1]; 30 seconds)	also measured
CCC=C(C)C(O)CCCCC (stereo not shown) [UNDECAVERTOL, 4-Methyl-3-decen-5-ol]	10000	10000	–	–
C/C=C/C(=O)C1C(C)C=CCC1(C)C (stereo not shown) [δ-DAMASCONE]	–	–	–	ODT ([2]; Table 28, fig note): 50 ppb or less
CC/C=C\CCO [CIS-3-HEXEN-1-OL]	14000	14000	14000	GC Abundance ([1]; 20 seconds): 14000
VERTOFIX COEUR	–	50	–	–
CC(C)c1cccc(C(C)CC=O)c1 (stereo not shown) [FLORHYDRAL]	9000	10000	–	Odor Detection Threshold [2]: 50 ppb or less
CC/C=C\CCOC(C)=O [CIS-3-HEXENYL ACETATE]	14000	14000	14000	GC Abundance ([1]; 20 seconds): 5000
CC=CC(=O)C1=C(C)C=CCC1(C)C [DAMASCENONE, 1-(2,6,6-Trimethylcyclohexa-1,3-dienyl)-2-buten-1-one]	–	1000	–	exp ODT water [2]: 0.002 ppb
CC(C=O)Cc1ccc2c(c1)OCO2 (stereo not shown) [HELIONAL]	500	5000	–	–
C=CC(C)CCCC(C)(C)O (stereo not shown) [DIHYDROMYRCENOL]	15000	15000	15000	GC Abundance ([1]; 10 seconds): 500; GC Abundance ([1]; 20 seconds): 15000
COC(=O)c1c(C)cc(O)c(C)c1O [METHYL ATRATATE]	–	50	–	–
CCCCCC1C(=O)CCC1CC(=O)OC (stereo not shown) [HEDIONE]	–	4000	–	Odor Detection Threshold [2]: 50 ppb or less
CCCC(=O)OCC [ETHYL BUTYRATE, Ethyl butyrate]	2000	800	2800	GC Abundance ([1]; 10 seconds): 2800; GC Abundance ([1]; 20 seconds): 2800; exp ODT water [2]: 1 ppb
CC(C)=CCCC(C)CCO (stereo not shown) [CITRONELLOL AJ, FCC, CITRONELLOL]	7000	7000	7000	GC Abundance ([1]; 20 seconds): 7000
CC1OC(C)C2Cc3ccccc3C2O1 (stereo not shown) [MAGNOLAN/CORPS 719]	1000	3000	–	–
CC1=CCC(CCC(C)C(C)O)C1(C)C (stereo not shown) [SANDALORE]	–	2000	–	–
CCCCOC(C)=O [Butyl acetate]	–	–	–	exp ODT water [2]: 44-88 ppb
CCOC(=O)C1OC1c1ccccc1 (stereo not shown) [ETHYL PHENYL GLYCIDATE]	–	–	–	ODT ([2]; Table 30, berry note): 50 ppb or less
CC/C(=C\CC1CC=C(C)C1(C)C)CO (stereo not shown) [BACDANOL]	100	5000	–	–
CCCCCCCCCC=CC=O [MANDARIN ALDEHYDE]	–	–	–	ODT ([2]; Table 32, citrus note): 50 ppb or less
Cc1ccc2c(c1)OCC(=O)CO2 [CALONE]	–	1000	–	–
CC(C)CC1CC(C)(O)CCO1 (stereo not shown) [FLOROL]	10000	15000	–	–

Compound	GC Abundance ([1]; 40 seconds)	GC Abundance ([1]; 50 seconds)	GC Abundance ([1]; 30 seconds)	also measured
CC(=O)/C=C/C1C(C)=CCCC1(C)C (stereo not drawn) [IONONE ALPHA, alpha ionone]	–	–	–	exp ODT water [2]: 0.4-10 ppb
CCC(C)(O)CCC=C(C)C (stereo not shown) [DIHYDROLINALOOL]	3000	3000	3000	GC Abundance ([1]; 20 seconds): 3000
C=C(C)C1CC=C(C)C(=O)C1 (stereo not shown) [I-1-Methyl-4-isopropenyl-6-cyclohexen-2-one]	–	–	–	exp ODT water [2]: 50 ppb
CCC(=O)OC/C=C(\C)CCC=C(C)C [trans-3,7-Dimethyl-2,6-octadien-1-yl propanoate]	–	–	–	exp ODT water [2]: 10 ppb
C=CC(C)(O)CCC=C(C)CC (mixture of isomers) [ETHYL LINALOOL]	10000	10000	10000	GC Abundance ([1]; 20 seconds): 5000
CC(=O)OC1CCC(C(C)(C)C)CC1 (stereo not shown) [VERTENEX HC]	8000	10000	2000	–
CCCC(C)C(=O)OCC (stereo not shown) [MANZANATE, Ethyl 2-methylpentanoate]	3000	1500	4000	GC Abundance ([1]; 10 seconds): 1000; GC Abundance ([1]; 20 seconds): 4000; exp ODT water [2]: 0.0030 ppb; ODT ([2]; Table 17, apple note compounds): 50 ppb or less; odor detection threshold in water ([2]; text b188): 0.003 parts per billion
COC(=O)c1ccccc1N [METHYL AN[…], METHYL ANTHRANILATE]	–	–	–	Odor Detection Threshold [2]: 50 ppb or less
OCc1ccccc1 [BENZYL ALCOHOL]	50	100	–	–
CC=CC(=O)C1C(C)=CCCC1(C)C (stereo not drawn) [alpha-DAMASCONE, α-1-(2,6,6-Trimethyl-2-cyclohexen-1-yl)-2-buten-1-one]	1000	5000	–	exp ODT water [2]: 1.5 ppb; ODT ([2]; Table 17, apple note compounds): 50 ppb or less
CC(=O)OC1CC2CC1C1CC=CC21 (stereo not shown)	–	–	–	Odor Detection Threshold [2]: 50 ppb or less
CC/C=C\CCOC(=O)OC [LIFFAROME]	3000	3000	3000	GC Abundance ([1]; 20 seconds): 3000
Cc1ccc(C(C)C)c(O)c1 [5-Methyl-2-isopropylphenol]	–	–	–	exp ODT water [2]: 400 ppb
CC(C)=CC1CC(C)CCO1 (stereo not drawn) [ROSE OXIDE (HIGH CIS), Tetrahydro-4-methyl-2-(2-methylpropen-1-yl)pyran]	14000	14000	14000	GC Abundance ([1]; 20 seconds): 10000; exp ODT water [2]: 0.5 ppb
O=C1CCCCCCCCCCCCCCO1 [EXALTOLIDE TOTAL]	–	50	–	–
O=C1CCCCCCCCCCCC(=O)OCCO1 [ETHYLENE BRASSYLATE]	–	20	–	–
C/C=C/C(=O)C1=C(C)CCCC1(C)C [BETA DAMASCONE FAB, β-damascone]	–	–	–	Odor Detection Threshold [2]: 50 ppb or less; ODT ([2]; Table 30, berry note): 50 ppb or less
CCCCCCCC=O [1-Octanal]	–	–	–	exp ODT water [2]: 30 ppb
CC(C)=CCCC(C)CCCC(C)C=O (stereo not shown) [ADOXAL, 2,6,10-Trimethyl-9-undecenal]	300	3000	–	–
CCC(=O)OCc1ccccc1 [BENZYL PROPIONATE]	6000	6000	6000	GC Abundance ([1]; 20 seconds): 2000
CCCCCOC(C)=O [Pentyl Acetate]	–	–	–	exp ODT water [2]: 43 ppb

Compound	GC Abundance ([1]; 40 seconds)	GC Abundance ([1]; 50 seconds)	GC Abundance ([1]; 30 seconds)	also measured
C=CCOC(=O)CCC1CCCCC1 [ALLYL CYCLOHEXYL PROPIONATE]	7000	10000	–	–
CC1=CC(C)C(C=O)CC1 (stereo not shown) [TRIPLAL]	10000	6000	14000	GC Abundance ([1]; 10 seconds): 1000; GC Abundance ([1]; 20 seconds): 14000
CC=Cc1ccc(O)c(OC)c1 [1-Hydroxy-2-methoxy-4-propenylbenzene]	–	–	–	exp ODT water [2]: 30-40 ppb
CC1=C(O)C(=O)C(C)O1 (stereo not shown) [STRAWBERRY FURANONE]	–	–	–	ODT ([2]; Table 30, berry note): 50 ppb or less
CCCCCCC(C=O)=Cc1ccccc1 [HEXYL CINNAMIC ALDEHYDE, hexyl cinnamic aldehyde]	2000	9000	–	–
CC1(C)CCC[C@]2(C)[C@H]3CCO[C@]3(C)CC[C@@H]12 [AMBROXAN]	–	1000	–	–
C=CCOC(=O)CCCCCC [ALLYL HEPTOATE]	12000	12000	10000	GC Abundance ([1]; 20 seconds): 4000
CC(=O)C=CC1=C(C)CCCC1(C)C [IONONE BETA PURE, 4-(2,6,6-Trimethyl-1-cyclohexen-1-yl)-3-buten-2-one]	10000	18000	2000	exp ODT water [2]: 4-6 ppb; Odor Detection Threshold [2]: 50 ppb or less
CCCCCCC1CCC(=O)O1 (stereo not shown) [GAMMA-DECALACTONE, 5-Hexyldihydro-2(3H)-furanone]	4000	7000	–	–
CCCCCOC(=O)CCC [Pentyl butyrate]	–	–	–	exp ODT water [2]: 44-87 ppb
CC(=O)OCc1ccccc1 [BENZYL ACETATE]	18000	18000	17000	GC Abundance ([1]; 20 seconds): 12000
CCCCCC1CCC(=O)O1 (stereo not shown) [ALDEHYDE C-18]	4000	4000	2000	GC Abundance ([1]; 20 seconds): 2000
COc1cc(C=O)ccc1O [VANILLIN NF, 4-Hydroxy-3-methoxybenzaldehyde]	–	–	–	exp ODT water [2]: 25-58 ppb and 20-200 ppb
CCOC(=O)CC1(C)OCCO1 [FRUCTONE]	5000	5000	5000	GC Abundance ([1]; 20 seconds): 3000; ODT ([2]; Table 17, apple note compounds): 50 ppb or less
CC(=O)OC(C)(C)C1CC=C(C)CC1 (stereo not shown) [TERPINYL ACETATE]	9000	9000	1000	–
CCOC(=O)C1OC1(C)c1ccccc1 (stereo not shown) [Ethyl 2,3-epoxy-3-methyl-3-phenylpropionate]	–	–	–	exp ODT water [2]: 25 ppb
CC(C)=CCCC(C)C=O (stereo not shown) [MELONAL, 2,6-Dimethyl-5-heptenal]	–	–	–	exp ODT water [2]: 16 ppb; ODT ([2]; Table 26, cucumber-melon note): 50 ppb or less; odor detection threshold values in water [2]: 16 ppb
C=CC(C)(O)CCC=C(C)C (stereo not shown) [LINALOOL, linalool]	18000	18000	18000	GC Abundance ([1]; 10 seconds): 500; GC Abundance ([1]; 20 seconds): 18000; Odor Detection Threshold [2]: 50 ppb or less
CC(=O)OC(C)(C)Cc1ccccc1 [DIMETHYL BENZYL CARBINYL ACETATE]	8000	8000	2000	–
